Test results: ChEMBL document CHEMBL1133221 (2000)
Active and inactive are the calls of the source. No cut-off for these calls is given here.

What was measured:
[1] = Inhibitory activity against chitin synthase from Saccharomyces cerevisiae
[2] = test system: Cryptococcus neoformans; test: Inhibitory activity against chitin synthase from Cryptococcus neoformans at 128 ug/mL; No inhibition
[3] = test system: Aspergillus fumigatus; test: Inhibitory activity against chitin synthase from Aspergillus fumigatus at 128 ug/mL; No inhibition
[4] = test system: trychophyton mentagrophytes; test: Inhibitory activity against chitin synthase from Trichophyton mentagrophytes at 128 ug/mL; No inhibition
[5] = test system: Microsporum canis; test: Inhibitory activity against chitin synthase from Microsporum canis at 128 ug/mL; No inhibition
[6] = Inhibitory activity against chitin synthase from Saccharomyces cerevisiae at a concentration up to 500 uM; No inhibition
[7] = molecular target: Chitin synthase 1 (Candida albicans) (UniProt P23316); test: Inhibitory activity against chitin synthase from Candida albicans at 128 ug/mL; No inhibition
Sequence of Chitin synthase 1 (Candida albicans) (P23316 whole entry, looked up): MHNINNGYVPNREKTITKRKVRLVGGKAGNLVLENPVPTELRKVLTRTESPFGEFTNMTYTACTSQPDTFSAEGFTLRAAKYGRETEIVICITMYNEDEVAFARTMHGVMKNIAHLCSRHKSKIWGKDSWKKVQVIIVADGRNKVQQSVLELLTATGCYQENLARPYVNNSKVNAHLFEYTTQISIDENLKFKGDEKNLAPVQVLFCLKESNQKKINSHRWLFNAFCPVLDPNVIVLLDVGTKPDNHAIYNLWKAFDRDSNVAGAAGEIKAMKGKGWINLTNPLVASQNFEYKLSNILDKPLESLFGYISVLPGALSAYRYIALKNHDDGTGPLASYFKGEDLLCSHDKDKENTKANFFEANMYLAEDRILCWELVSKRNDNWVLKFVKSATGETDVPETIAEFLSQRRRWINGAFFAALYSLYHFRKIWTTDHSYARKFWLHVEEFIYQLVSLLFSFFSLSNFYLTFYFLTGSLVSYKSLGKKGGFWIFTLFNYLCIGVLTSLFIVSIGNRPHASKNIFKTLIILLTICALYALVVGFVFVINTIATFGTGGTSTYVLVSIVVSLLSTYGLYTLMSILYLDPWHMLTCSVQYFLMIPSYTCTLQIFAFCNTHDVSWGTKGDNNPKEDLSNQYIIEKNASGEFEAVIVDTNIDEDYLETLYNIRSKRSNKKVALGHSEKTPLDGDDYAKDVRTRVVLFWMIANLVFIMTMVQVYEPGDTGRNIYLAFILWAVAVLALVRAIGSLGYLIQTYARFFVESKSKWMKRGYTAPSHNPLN

Question: For `C[C@@H]([C@H](N)C(=O)N[C@H](C(=O)O)[C@H]1O[C@@H](n2ccc(=O)[nH]c2=O)[C@H](O)[C@@H]1O)[C@H](O)c1ccc(O)cn1` [NIKKOMYCIN], which Ki [1] is on record?
Answer: The Ki was 600 nM.

Question: Which Activity [2] does the source give for `CCOP(=O)(OCC)C(F)(F)C1C(O)C(O)C(CO)N1CCNC1C(CO)OC(OC)C(NC(C)=O)C1O` (configuration not stated) here?
Answer: Its Activity is “inactive”.

Question: What about the Activity [3] of the same compound?
Answer: Its Activity is “inactive”.

Question: And the Activity [4]?
Answer: The Activity was “inactive”.

Question: What about the Activity [5] of the same compound?
Answer: The Activity was “inactive”.

Question: And the Ki [6]?
Answer: The Ki was “Not Active”.

Question: What about the Activity [7] of the same compound?
Answer: The Activity was “inactive”.
